According to patent US12466834B2, “Imidazodiazepinediones and methods of use thereof” (GFB (ABC), LLC, priority 2018, dated 2025):

Experiments:
Format in all cases: cell-based
human TRPC5 [1] = molecular target: T1, human TRPC5 (Homo sapiens, UniProt Q9UL62); assay: FLIPR calcium assay, inhibition of riluzole-activated TRPC5 calcium response; conditions: ICLN-1633 cells; riluzole 30 μM stimulation; Fluo-4 calcium response; read-out: Inhibitor Potency Range (FLIPR)
T1 construct: expressed in transfected cells
T1 sequence (Q9UL62 1-973): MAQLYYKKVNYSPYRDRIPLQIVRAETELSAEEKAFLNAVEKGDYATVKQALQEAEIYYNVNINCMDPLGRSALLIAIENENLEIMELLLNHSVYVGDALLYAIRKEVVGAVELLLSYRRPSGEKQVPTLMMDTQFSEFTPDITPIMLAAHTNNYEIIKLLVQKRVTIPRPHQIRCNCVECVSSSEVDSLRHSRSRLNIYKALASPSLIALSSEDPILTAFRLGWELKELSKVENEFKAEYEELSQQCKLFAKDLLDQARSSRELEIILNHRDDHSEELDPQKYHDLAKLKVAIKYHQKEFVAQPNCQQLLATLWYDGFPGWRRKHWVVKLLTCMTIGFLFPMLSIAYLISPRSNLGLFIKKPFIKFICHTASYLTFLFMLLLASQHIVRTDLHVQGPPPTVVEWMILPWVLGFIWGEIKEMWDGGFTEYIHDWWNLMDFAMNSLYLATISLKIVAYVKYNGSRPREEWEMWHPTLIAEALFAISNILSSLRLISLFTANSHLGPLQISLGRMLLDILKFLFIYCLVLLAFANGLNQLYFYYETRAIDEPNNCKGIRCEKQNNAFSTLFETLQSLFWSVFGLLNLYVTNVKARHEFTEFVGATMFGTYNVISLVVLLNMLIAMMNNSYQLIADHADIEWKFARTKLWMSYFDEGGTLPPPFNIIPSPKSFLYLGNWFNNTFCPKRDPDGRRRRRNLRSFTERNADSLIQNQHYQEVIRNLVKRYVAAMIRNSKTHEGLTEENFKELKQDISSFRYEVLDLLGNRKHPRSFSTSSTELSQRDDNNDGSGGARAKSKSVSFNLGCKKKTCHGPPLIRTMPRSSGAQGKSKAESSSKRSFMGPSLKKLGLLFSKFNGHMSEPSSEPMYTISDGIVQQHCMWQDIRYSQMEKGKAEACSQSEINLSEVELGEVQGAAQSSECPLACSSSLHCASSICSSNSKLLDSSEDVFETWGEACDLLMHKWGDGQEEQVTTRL
Experimental: (§1) ICLN-1633 cells (HEK-TREx hTRPC5) expressing TRPC5 were generated as follows. Commercially available HekTrex-293 cells were seeded at 0.7×10^6 cells/well in a 1×6-well plate 24 hrs prior to transfection using 2 mL cell growth media containing no antibiotics (1× DMEM/high glucose (Hyclone #SH30022.02); 10% fetal bovine serum (Sigma) 2 mM sodium pyruvate, 10 mM HEPES). The human TRPC5 coding sequence (NM_012471 with a silent T478C mutation) was cloned into pcDNA5/TO (Invitrogen; Cat No. V103320) using hygromycin as the resistance gene and the plasmid (SEQ ID NO:1) propagated using T-Rex-293 cells (Invitrogen; Cat No. R71007) following manufacturer's directions. On day 2, 2 μg of plasmid DNA plus 6 μl of Xtreme-GENE HP reagent in Optimem (200 μl total volume) was prepared and incubated for 15 min at room temperature. This plasmid solution was then gently overlayed dropwise onto each well and the plate was gently swirled to mix complex with the media for approximately 30 seconds. Transfected cells were incubated at 37° C. in a 10% CO2 incubator for 24 hrs. The transfected cells were harvested and transferred into 2×150 mm dishes containing cell growth media with no antibiotics at 37° C.
(§2) Compounds were made up to, or supplied as a 10 mM stock solution generally using DMSO as the vehicle. 10-point dose response curves were generated using the Echo-550 acoustic dispenser. Compound source plates were made by serially diluting compound stocks to create 10 mM, 1 mM, and 0.1 mM solutions in DMSO into Echo certified LDV plates. The Echo then serially spotted 100% DMSO stock solutions into source dose response plates to generate a 4-fold dilution scheme. 100% DMSO was added to the spotted dose response plates to bring the final volume to 5 μl. 300 nl of the dose response stock plate was then spotted into pre-incubation and stimulation assay plates. 50 μl of pre-incubation buffer and 100 μl of stimulation buffer was then added to the plates resulting in a final assay test concentration range of 30 μM to 0.0001 μM with a final DMSO concentration of 0.3%.
(§3) Human ICLN-1633 cells expressing were plated onto 384 well, black poly-D-lysine-coated microplates and maintained in TRPC5 growth media the day prior to use for experiments. TRPC5 expression was induced by the application of 1 μg/mL tetracycline at the time of plating. Media was removed from the plates and 10 μl of 4 μM of Fluo-4 AM (mixed with equal volume of Pluronic F-127) in Earls's Balanced Salt Solution (EBSS) was added to the cells. Cells were incubated at room temperature, protected from light, for 60-90 minutes. After the incubation period, the dye was removed and replaced with 10 μl of EBSS. Cell, pre-incubation and stimulation plates were loaded onto the FLIPR-II and the assay was initiated. The FLIPR measured a 10 second baseline and then added 10 μl of 2× compounds (or controls). Changes in fluorescence were monitored for an additional 5 minutes. After the 5 minute pre-incubation, 20 μl of 2× riluzole (with 1× compound or controls) was added to the cell plate. The final riluzole stimulation concentration in the assay was 30 μM. After the riluzole addition, changes in fluorescence were monitored for an additional 5 minutes. Reduction in the riluzole-activated calcium response relative to control wells was reported as inhibition. A compound-mediated increase in the riluzole response relative to control riluzole response (no test agent present) with no enhancement of calcium entry during preincubation phase was reported as an agonist response.
Compound inhibition of TRPC5 calcium response was determined as follows. After the riluzole addition, fluorescence was monitored for a 5-minute period. For inhibition, the maximum relative fluorescence response (minus the control response of 1 μM of an internal control compound known to maximally block TRPC5 calcium response, the “REF INHIB” in the formula below) was captured and exported from the FLIPR. […]

human TRPC5 [2] = molecular target: T1, human TRPC5; assay: Automated patch clamp assay (QPatch), antagonist mode; conditions: HEK-TREx hTRPC5 cells; channel activated with Rosiglitazone 30 μM; normalised to ML-204 block; read-out: Qpatch Potency Range
Experimental: as §1
The next day selection was initiated to generate a stable pool by adding cell growth media containing 150 μg/mL Hygromycin and 5 μg/mL Blasticidin and cells were allowed to grow. Media with the selection agent was changed every 1-2 days as needed to remove dead cells. After 7 days, the hygromycin concentration was reduced to 75 μg/mL and cells growth was allowed to continue.
Single clones were selected as follows. The stable pool was diluted to 10 cells/mL and seeded (100 μl/well) into 24×96 well plates (˜1 cell/well) and allowed to grow for 7 days in cell growth media. Fresh media (100 μl) was added and the cells allowed to grow for another 1-2 weeks and then stored frozen or used immediately.
The automated electrophysiological assay was carried out at room temperature. On the day of the experiment, TRPC5 cells were cultured according to our Standard Operating Procedure. Briefly, cells were harvested using TrypLE™ Express, re-suspended in serum free medium, added to the automated platform and used within 0.5-3 hours. Internal and external physiological solutions were freshly prepared prior to the assay. The external solution contained: 145 mM NaCl, 4 mM KCl, 2 mM CaCl2, 1 mM MgCl2, 10 mM HEPES, 10 mM glucose, pH 7.4 with NaOH and 310 mOsm/L. The internal solution contained 120 mM L-aspartic acid, 120 mM CsOH·H2O, 20 mM CsCl, 2 mM MgCl2, 8.8 mM CaCl2, 10 mM EGTA, 10 mM HEPES and 2 mM Na2ATP; pH 7.2 with CsOH and 330 mOsm/L. The free internal Ca^2+ concentration was buffered to 1 μM, according to the WCabuf software. The automated electrophysiological platform QPatch 16 from Sophion (Denmark) was used to carry out the compounds profiling. The series resistance and quality of seals were continuously monitored during the experiments. Data were analyzed using Sophion QPatch assay software 5.6 (Odense). Data were normalized using the maximum activation obtained during the pre-compound agonist application as the top value (1.0) and maximum inhibition induced by ML-204 as the bottom value (0.0). IC50 values were calculated using a least squares regression algorithm (Hill equation).
To monitor the ion currents, a voltage ramp from −100 mV to +100 mV, over 300 ms, was applied every 10 seconds, from a holding potential of −60 mV. Antagonist-mode: After recording for a minimum of 60 seconds control period, the EC60 concentration of the TRPC5 agonist, Rosiglitazone (30 μM), was applied to activate the channel. After reaching steady-state, co-application of increasing concentrations of test compound were applied followed by two applications of Rosiglitazone EC60 and a saturating concentration of the specific blocker ML-204 (100 μM).

human TRPC5 [3] = molecular target: T1, human TRPC5; assay: FLIPR calcium assay, compound activation (agonism) of TRPC5 calcium response; parameters: key to Agonist Potency Range (FLIPR): A=0.001-1 μM; B=1-10 μM; C=>1 μM; D=tested with a positive result for agonism, but EC50 not calculated; conditions: ICLN-1633 cells, Fluo-4 calcium response; for EC50: read-out: Agonist Potency Range (FLIPR)
Experimental: as §1, §2, §3
Compound activation (agonism) of TRPC5 calcium response was determined as follows. After the initial compound addition, fluorescence was monitored for 5 minutes. The maximum relative fluorescence response (minus the control response of EBSS buffer alone) is captured and exported from the FLIPR. Compound activation is calculated using the following formula: […]

| IC50 (human TRPC5 [1]) [µM] | IC50 (human TRPC5 [2]) [µM] | Agonist Potency Range (FLIPR) (human TRPC5 [3]) | EC50 (human TRPC5 [3]) [µM] | SMILES |
| --- | --- | --- | --- | --- |
| 0.001 to 1 | 0.001 to 1 |  |  | CCCCn1c(Oc2cccc(F)c2)nc2c1C(=O)N(CCCO)C(=O)[C@@H]1CCCN21 (single isomer, unassigned) [Compound 24] |
| > 10 |  | D |  | CCCCn1c(Oc2cccc(F)c2)nc2c1C(=O)N(CCCO)C(=O)[C@H]1CCCN21 (single isomer, unassigned) [Compound 25] |
| 1 to 10 | 1 to 30 |  |  | CN1C(=O)CN(CCCO)C(=O)c2c1nc(Oc1cccc(OC(F)(F)F)c1)n2Cc1ccc(Cl)cc1 [Compound 2, 1-[(4-chlorophenyl)methyl]-7-(3-hydroxypropyl)-4-methyl-2-[3-(trifluoromethoxy)phenoxy]-1H,4H,5H,6H,7H,8H-imidazo[4,5-e][1,4]diazepine-5,8-dione] |
| 1 to 10 | > 30 |  |  | CN1C(=O)CN(CC(F)(F)CO)C(=O)c2c1nc(Oc1cccc(OC(F)(F)F)c1)n2Cc1ccc(Cl)cc1 [Compound 11] |
| > 10 |  |  | 0.001 to 1 | O=C1c2c(nc(Oc3cccc(F)c3)n2Cc2ccc(Cl)cc2)N2CCC[C@@H]2C(=O)N1CCCO [Compound 27] |
| > 10 |  |  | 0.001 to 1 | CC(C)Oc1nc2c(n1Cc1ccc(Cl)cc1)C(=O)N(CCCO)C(=O)[C@@H]1CCCN21 [Compound 28] |
| > 10 |  |  | 1 to 10 | CC(C)Oc1nc2c(n1Cc1ccc(Cl)cc1)C(=O)N(CCCO)C(=O)[C@H]1CCCN21 [Compound 29] |
| > 10 |  |  | 1 to 10 | CCCOc1nc2c(n1Cc1ccc(Cl)cc1)C(=O)N(CCCO)C(=O)[C@H]1CCCN21 [Compound 30] |
| > 10 |  |  | 0.001 to 1 | CCCOc1nc2c(n1Cc1ccc(Cl)cc1)C(=O)N(CCCO)C(=O)[C@@H]1CCCN21 [Compound 31] |
